Results: patent US5849766A, “Carbamoyl substituted heterocycles” (Eli Lilly and Company, priority 1997, dated 1998)

System: thromboxane receptor
Experiment: Absence of Agonist Activity (pressor response in pithed rats)
Format: in vivo, rat
Text: 3. Absence of Agonist Activity.

Row | SMILES | pressor response (TXA2 agonist activity) (i.v., pithed rats, doses up to 10 mg/kg) | increase in the mean arterial pressure (0.1 mg/kg i.v., at one minute after dosing)
1 | O=C(O)CCCC/C=C(\c1ccc(-c2nc(C(=O)NCCCCC3CCCCC3)co2)cc1)c1cccnc1 [Example 2, (E)-7-[4-[4-[[(4-Cyclohexylbutyl)amino]carbonyl]-2-oxazolyl]phenyl]-7-(3-pyridyl)hept-6-enoic Acid] | absence of a pressor response | 
2 | O=C(O)CCC/C=C\CC1C2CCC(C2)C1NS(=O)(=O)c1ccccc1 (centres unmarked) [Example S-145] |  | transient, but significant, increase in the mean arterial pressure
